Data published in US9023857B2, “Substituted 6-(2-aminobenzylamino)purine derivatives, their use as medicaments and preparations containing these compounds” (Univerzita Palackeho V Olomouci, priority 2009, dated 2015).
“Also recorded” adds a separate entry of the source.

What was measured:
[1] = system: p53-responsive reporter pRGCΔfoslacZ in human melanoma cell line Arn8; assay: p53-dependent transcriptional activity, β-galactosidase reporter in Arn8 cells
HAd4 [2] = assay: Plaque number reduction assay, HAd4 on A549; assay type: cell-based, Human adenovirus type 4 (HAdV-4) strain RI-6
CDK9/cyclin T = CDK9/cyclin T (Homo sapiens, UniProt P50750); assay: CDK inhibition assay, CDK9/cyclin T
HAd4 [3] = assay: HAd4 yield reduction assay (multiple step growth curve) in A549 cells; conditions: culture medium; combination: until 72 hours after infection
[4] = system: HIV promoter integrated into cellular DNA (H1299-HIV cells); assay: β-galactosidase expression from pHIV-lacZ incorporated to cellular genome (H1299-HIV); conditions: HIV promoter integrated into cellular DNA (FIG. 11)
HSV-1 = assay: Plaque number reduction assay, HSV-1 on HFFF; assay type: cell-based, Herpes simplex virus type 1 strain 17
[5] = system: p53-responsive reporter pRGCΔfoslacZ in murine fibroblasts T22lacZ; assay: p53-dependent transcriptional activity, β-galactosidase reporter in T22lacZ cells; assay type: cell-based; conditions: 5 μM

CDK9/cyclin T, sequence (P50750 whole entry, species assumed): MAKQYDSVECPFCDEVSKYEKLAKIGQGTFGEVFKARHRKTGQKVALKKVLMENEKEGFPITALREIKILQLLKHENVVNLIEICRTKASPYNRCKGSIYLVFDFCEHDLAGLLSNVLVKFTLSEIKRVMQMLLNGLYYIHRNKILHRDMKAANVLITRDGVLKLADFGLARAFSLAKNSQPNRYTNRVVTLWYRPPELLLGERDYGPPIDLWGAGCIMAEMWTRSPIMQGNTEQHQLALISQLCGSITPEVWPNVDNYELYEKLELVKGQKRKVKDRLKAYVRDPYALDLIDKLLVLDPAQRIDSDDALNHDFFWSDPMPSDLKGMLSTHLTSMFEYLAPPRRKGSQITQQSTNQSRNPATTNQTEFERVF
CDK9/cyclin T, sequence (O60563 whole entry partner, species assumed): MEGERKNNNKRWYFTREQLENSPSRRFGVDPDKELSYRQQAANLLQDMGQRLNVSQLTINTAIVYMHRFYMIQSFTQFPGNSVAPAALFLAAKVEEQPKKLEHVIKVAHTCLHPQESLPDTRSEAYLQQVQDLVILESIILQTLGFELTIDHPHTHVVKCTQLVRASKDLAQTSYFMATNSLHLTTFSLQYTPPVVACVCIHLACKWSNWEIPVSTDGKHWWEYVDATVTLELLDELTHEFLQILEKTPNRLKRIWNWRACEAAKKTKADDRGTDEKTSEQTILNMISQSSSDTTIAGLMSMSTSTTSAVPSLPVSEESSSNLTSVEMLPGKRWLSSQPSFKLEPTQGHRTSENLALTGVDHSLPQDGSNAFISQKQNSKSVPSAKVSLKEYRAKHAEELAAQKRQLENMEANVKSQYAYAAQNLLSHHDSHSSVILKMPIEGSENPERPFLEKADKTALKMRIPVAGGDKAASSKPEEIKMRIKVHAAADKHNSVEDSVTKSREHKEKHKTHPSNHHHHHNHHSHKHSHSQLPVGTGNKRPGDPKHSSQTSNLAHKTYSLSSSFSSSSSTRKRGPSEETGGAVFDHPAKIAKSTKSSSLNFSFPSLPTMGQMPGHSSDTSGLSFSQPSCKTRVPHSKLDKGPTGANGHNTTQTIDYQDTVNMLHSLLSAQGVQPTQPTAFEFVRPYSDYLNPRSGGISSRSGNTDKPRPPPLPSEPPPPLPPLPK

CCC(CO)Nc1nc(NCc2ccccc2N)c2ncn(C(C)C)c2n1 (stereo not drawn) [Compound 105, 2-({6-[(2-aminobenzyl)amino]-9-isopropyl-9H-purin-2-yl}amino)butan-1-ol]
blue-coloured cells (β-galactosidase activity, X-gal substrate) ([1]; Arn8 cells, 5 μM): about 25%
total β-galactosidase activity, colorimetric assay ([1]; Arn8 cells, 12 and 24 hours after treatment): strong activity
Max. β-Gal. Activtity Conc. ([1]; concentration inducing maximum of β-galactosidase activity (p53-responsive reporter)): 16 µM
inhibition of virus replication (in words) (HAd4 [2]): inhibited HAd4 replication; also recorded: profound effect
IC50 (CDK9/cyclin T): 5 nM
appearance of extracellular virus (HAd4 [3]): considerably delayed
increase of reporter readout [4]: 4 times
inhibition of virus replication (in words) (HSV-1): inhibited replication
blue-coloured cells (β-galactosidase activity, X-gal substrate) [5]: about 25%
